Data reported in ChEMBL document CHEMBL2073781, “Organ distribution of multidrug resistance proteins 1, 2, and 3 (Mrp1, 2, and 3) mRNA and hepatic induction of Mrp3 by constitutive androstane receptor activators in rats” (J Pharmacol Exp Ther, 2002).

Target: ATP-binding cassette sub-family C member 2 (Rattus norvegicus, UniProt Q63120)
Experiment: TP_TRANSPORTER: Branched DNA assay in vivo SD rat, kidney
Type: functional, organism-based, Sprague-Dawley

Sequence of ATP-binding cassette sub-family C member 2 (Q63120 whole entry): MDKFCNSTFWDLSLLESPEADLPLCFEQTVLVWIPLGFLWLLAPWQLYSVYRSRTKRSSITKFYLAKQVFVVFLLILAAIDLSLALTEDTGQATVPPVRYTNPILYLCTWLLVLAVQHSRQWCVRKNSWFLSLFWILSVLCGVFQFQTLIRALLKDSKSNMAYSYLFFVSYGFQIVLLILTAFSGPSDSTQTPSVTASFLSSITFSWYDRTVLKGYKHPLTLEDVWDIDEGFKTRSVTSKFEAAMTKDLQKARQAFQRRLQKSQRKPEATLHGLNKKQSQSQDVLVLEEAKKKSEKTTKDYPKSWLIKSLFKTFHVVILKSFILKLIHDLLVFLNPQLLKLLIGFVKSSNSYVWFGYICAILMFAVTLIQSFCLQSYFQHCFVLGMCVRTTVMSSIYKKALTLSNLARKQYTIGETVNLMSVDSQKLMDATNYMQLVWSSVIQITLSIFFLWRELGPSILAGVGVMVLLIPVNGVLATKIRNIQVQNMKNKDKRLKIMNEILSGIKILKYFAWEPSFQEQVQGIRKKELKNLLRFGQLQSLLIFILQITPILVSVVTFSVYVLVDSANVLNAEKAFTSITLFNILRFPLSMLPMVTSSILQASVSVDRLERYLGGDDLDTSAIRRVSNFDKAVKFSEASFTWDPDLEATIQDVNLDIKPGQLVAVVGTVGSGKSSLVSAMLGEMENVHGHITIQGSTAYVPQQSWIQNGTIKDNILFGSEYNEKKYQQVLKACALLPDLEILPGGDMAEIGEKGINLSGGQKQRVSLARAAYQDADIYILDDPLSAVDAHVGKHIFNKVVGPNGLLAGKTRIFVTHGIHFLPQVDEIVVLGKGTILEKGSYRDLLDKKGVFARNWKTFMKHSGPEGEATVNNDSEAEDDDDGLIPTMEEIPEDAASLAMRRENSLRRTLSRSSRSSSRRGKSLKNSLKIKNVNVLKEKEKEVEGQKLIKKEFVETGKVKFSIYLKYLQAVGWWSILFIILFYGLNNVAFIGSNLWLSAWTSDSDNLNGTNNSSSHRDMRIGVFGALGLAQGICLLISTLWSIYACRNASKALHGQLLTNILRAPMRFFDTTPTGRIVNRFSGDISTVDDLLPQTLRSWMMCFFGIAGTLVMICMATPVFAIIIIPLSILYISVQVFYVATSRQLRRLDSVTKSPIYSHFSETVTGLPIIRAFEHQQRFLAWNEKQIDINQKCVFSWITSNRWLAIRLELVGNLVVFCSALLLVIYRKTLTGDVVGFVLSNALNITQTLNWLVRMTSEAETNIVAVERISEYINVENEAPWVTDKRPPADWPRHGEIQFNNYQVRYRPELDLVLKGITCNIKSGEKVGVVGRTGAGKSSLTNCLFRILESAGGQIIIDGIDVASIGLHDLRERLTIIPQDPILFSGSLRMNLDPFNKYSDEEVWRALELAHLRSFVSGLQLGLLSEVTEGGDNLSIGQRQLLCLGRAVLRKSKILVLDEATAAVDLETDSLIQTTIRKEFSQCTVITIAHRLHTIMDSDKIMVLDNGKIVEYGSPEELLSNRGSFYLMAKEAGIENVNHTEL

Activity | Compound
inducer [+] | O=c1cc(-c2ccccc2)oc2ccc3ccccc3c12 [BETA-NAPHTHOFLAVONE]
inducer [+] | OCc1c[nH]c2ccccc12 [INDOLE-3-CARBINOL]
inducer [+] | CN(N=O)C(=O)N[C@@H](C=O)[C@@H](O)[C@H](O)[C@H](O)CO [STREPTOZOCIN]

Compound | Activity
CCCC[C@@H](CC)COC(=O)c1ccccc1C(=O)OC[C@@H](CC)CCCC [BIS(2-ETHYLHEXYL)PHTHALATE] | inducer [+]
